ChEMBL document CHEMBL1201862, “PubChem BioAssay data set” (2004)
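All cell lines were grown in 96-well plates and treated with compound for 48 hours. The concentration for 50% growth inhibition is given as GI50.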 Calls of active or inactive are those of the source. Cut-off read from the data, not from the text of the source: active = GI50 up to about 1.1 µM and inactive = higher. Square brackets hold non-standard residues; d marks the D form. Peptide text beside a SMILES is read from it. * marks the point of attachment. ξ: configuration not given here. ξF = NC(Cc1ccccc1)C(=O)O; Cbz = O=C(OCc1ccccc1)*; Aib = CC(C)(N)C(=O)O

What was measured:
Assay in all cases: NCI anticancer screen, dose series, 48 h
[1] = test system: HCT-116
[2] = test system: COLO 205
[3] = test system: DU-145
[4] = test system: HCT-15
[5] = test system: TK-10
[6] = test system: MDA-MB-435
[7] = test system: A549
[8] = test system: ACHN
[9] = test system: SF-268
[10] = test system: EKVX
[11] = test system: SF-295
[12] = test system: SK-MEL-5
[13] = test system: NCI-H226
[14] = test system: LOX IMVI
[15] = test system: OVCAR-5
[16] = test system: HCC 2998
[17] = test system: HOP-92
[18] = test system: OVCAR-8
[19] = test system: A498
[20] = test system: SR

SMILES | GI50 [1] | GI50 [2] | GI50 [3] | GI50 [4] [µM] | GI50 [5] | GI50 [6] | GI50 [7] | GI50 [8] | GI50 [9] | GI50 [10] | GI50 [11] | GI50 [12] | GI50 [13] | GI50 [14] | GI50 [15] | GI50 [16] | GI50 [17] | GI50 [18] | GI50 [19] | GI50 [20]
CCOC(=O)c1c2c(n(-c3ccc(OC)cc3)c1C)C(=O)C(=O)c1ccccc1-2 | 1.33 µM (inactive) | 2.2 µM (inactive) | 1.52 µM (inactive) | 3.65 | 1.72 µM (inactive) | 0.19 µM (active) | 1.51 µM (inactive) | 1.14 µM (inactive) | 1.64 µM (inactive) | 2.01 µM (inactive) | 1.61 µM (inactive) | 1.06 µM (active) | 1.75 µM (inactive) | 0.789 µM (active) | 1.88 µM (inactive) | 1.73 µM (inactive) | 1.85 µM (inactive) | 0.687 µM (active) | – | –
COc1cc2c3c(c1OC)C(=O)C=C3N(S(=O)(=O)c1ccc(C)cc1)CC2 | > 100 µM (inactive) | > 100 µM (inactive) | – | > 100 | > 100 µM (inactive) | – | > 100 µM (inactive) | 75.9 µM (inactive) | > 100 µM (inactive) | > 100 µM (inactive) | 77.8 µM (inactive) | > 100 µM (inactive) | > 100 µM (inactive) | > 100 µM (inactive) | > 100 µM (inactive) | > 100 µM (inactive) | > 100 µM (inactive) | > 100 µM (inactive) | > 100 µM (inactive) | > 100 µM (inactive)
CN1C(=O)c2cccc3c([N+](=O)[O-])ccc(c23)C1=O | 6.52 µM (inactive) | 7.26 µM (inactive) | – | 2.84 | 3.86 µM (inactive) | – | 12.7 µM (inactive) | 10.1 µM (inactive) | 9.68 µM (inactive) | 13.7 µM (inactive) | 14.5 µM (inactive) | 18.3 µM (inactive) | 1.56 µM (inactive) | 6.12 µM (inactive) | 3.5 µM (inactive) | 6 µM (inactive) | 6.52 µM (inactive) | 6.01 µM (inactive) | 2.65 µM (inactive) | 3.25 µM (inactive)
C#CCSc1nc(N)c2ncn(C3OC(COP(=O)(O)O)C(O)C3O)c2n1 (stereo not drawn) | > 239 µM (inactive) | > 239 µM (inactive) | – | > 239 | > 239 µM (inactive) | – | > 239 µM (inactive) | > 239 µM (inactive) | > 239 µM (inactive) | > 239 µM (inactive) | > 239 µM (inactive) | > 239 µM (inactive) | > 239 µM (inactive) | > 239 µM (inactive) | > 239 µM (inactive) | > 239 µM (inactive) | > 239 µM (inactive) | > 239 µM (inactive) | > 239 µM (inactive) | > 239 µM (inactive)
CCOC(=O)C1=C(O)C(=O)c2cc(OC)ccc2C1=O | 95.5 µM (inactive) | > 100 µM (inactive) | – | > 100 | > 100 µM (inactive) | – | 96.2 µM (inactive) | > 100 µM (inactive) | > 100 µM (inactive) | > 100 µM (inactive) | 84.9 µM (inactive) | 49.1 µM (inactive) | 38.5 µM (inactive) | 55.2 µM (inactive) | > 100 µM (inactive) | > 100 µM (inactive) | > 100 µM (inactive) | > 100 µM (inactive) | > 100 µM (inactive) | > 100 µM (inactive)
NC(CCC(=O)NC(CSC(=O)N(O)c1ccccc1)C(=O)NCC(=O)O)C(=O)O (stereo not drawn) | > 1000 µM (inactive) | > 1000 µM (inactive) | – | > 1000 | > 1000 µM (inactive) | – | > 1000 µM (inactive) | > 1000 µM (inactive) | > 1000 µM (inactive) | > 1000 µM (inactive) | > 1000 µM (inactive) | > 1000 µM (inactive) | > 1000 µM (inactive) | > 1000 µM (inactive) | > 1000 µM (inactive) | > 1000 µM (inactive) | > 1000 µM (inactive) | > 1000 µM (inactive) | > 1000 µM (inactive) | > 1000 µM (inactive)
CCOC(=O)C1C(=O)C(=O)N2CCc3c([nH]c4ccccc34)C12 (stereo not drawn) | > 100 µM (inactive) | > 100 µM (inactive) | – | > 100 | > 100 µM (inactive) | – | > 100 µM (inactive) | – | > 100 µM (inactive) | > 100 µM (inactive) | > 100 µM (inactive) | > 100 µM (inactive) | – | – | > 100 µM (inactive) | > 100 µM (inactive) | > 100 µM (inactive) | > 100 µM (inactive) | > 100 µM (inactive) | > 100 µM (inactive)
O=C(O)C12CCC(CC1=O)C2 (stereo not drawn) | – | > 100 µM (inactive) | – | > 100 | > 100 µM (inactive) | > 100 µM (inactive) | > 100 µM (inactive) | > 100 µM (inactive) | > 100 µM (inactive) | > 100 µM (inactive) | > 100 µM (inactive) | > 100 µM (inactive) | > 100 µM (inactive) | > 100 µM (inactive) | > 100 µM (inactive) | – | > 100 µM (inactive) | > 100 µM (inactive) | – | > 100 µM (inactive)
C[N+]1(C)C/C(=C\c2ccc(O)cc2)C(=O)/C(=C/c2ccc(O)cc2)C1 | 34 µM (inactive) | 47.1 µM (inactive) | – | 60.1 | 18 µM (inactive) | – | 37.5 µM (inactive) | > 100 µM (inactive) | 55.7 µM (inactive) | > 100 µM (inactive) | 63.2 µM (inactive) | > 100 µM (inactive) | – | 56.8 µM (inactive) | > 100 µM (inactive) | > 100 µM (inactive) | > 100 µM (inactive) | 48.2 µM (inactive) | 85.1 µM (inactive) | 82.4 µM (inactive)
CC(=O)c1ccc2c(c1)N(CCCN1CCN(CCO)CC1)c1ccccc1C2 | 16.3 µM (inactive) | 15.1 µM (inactive) | 14.3 µM (inactive) | 14.4 | 14.7 µM (inactive) | 8.71 µM (inactive) | 17.9 µM (inactive) | 20.3 µM (inactive) | 17.8 µM (inactive) | 17.9 µM (inactive) | 17.1 µM (inactive) | 12.2 µM (inactive) | 14.6 µM (inactive) | 15.2 µM (inactive) | 17.2 µM (inactive) | – | 12.9 µM (inactive) | 16.7 µM (inactive) | 15.7 µM (inactive) | –
CC1CC(N2CCOCC2)=Nc2ccccc2N1C (stereo not drawn) | > 100 µM (inactive) | > 100 µM (inactive) | > 100 µM (inactive) | > 100 | > 100 µM (inactive) | > 100 µM (inactive) | > 100 µM (inactive) | > 100 µM (inactive) | > 100 µM (inactive) | > 100 µM (inactive) | > 100 µM (inactive) | > 100 µM (inactive) | > 100 µM (inactive) | – | > 100 µM (inactive) | – | – | > 100 µM (inactive) | > 100 µM (inactive) | –
COC(=O)c1ccccc1/C=C1\Cc2cc(C)cc(C)c2C1=O | > 100 µM (inactive) | – | > 100 µM (inactive) | > 100 | > 100 µM (inactive) | – | > 100 µM (inactive) | > 100 µM (inactive) | > 100 µM (inactive) | > 100 µM (inactive) | > 100 µM (inactive) | > 100 µM (inactive) | > 100 µM (inactive) | > 100 µM (inactive) | > 100 µM (inactive) | > 100 µM (inactive) | – | > 100 µM (inactive) | > 100 µM (inactive) | > 100 µM (inactive)
N#CC(C#N)=c1c2ccccc2c(=C(C#N)C#N)c2ccccc12 | 17.8 µM (inactive) | 21.2 µM (inactive) | – | 43.3 | – | 18.4 µM (inactive) | 31 µM (inactive) | 20 µM (inactive) | 22.9 µM (inactive) | – | – | 16.7 µM (inactive) | 17.7 µM (inactive) | 17.8 µM (inactive) | 20.9 µM (inactive) | – | 32.9 µM (inactive) | 20.1 µM (inactive) | 23.8 µM (inactive) | –
Cc1ccc(/C=C(\C#N)c2ccccc2)cc1 | > 100 µM (inactive) | > 100 µM (inactive) | – | > 100 | > 100 µM (inactive) | – | – | > 100 µM (inactive) | > 100 µM (inactive) | – | > 100 µM (inactive) | > 100 µM (inactive) | > 100 µM (inactive) | > 100 µM (inactive) | > 100 µM (inactive) | > 100 µM (inactive) | > 100 µM (inactive) | > 100 µM (inactive) | > 100 µM (inactive) | > 100 µM (inactive)
O=C(c1cc(Cl)ccc1Cl)N1CCN(c2ccc(Cl)c(Cl)c2)CC1 | 21 µM (inactive) | – | 61.2 µM (inactive) | 13.2 | 31.9 µM (inactive) | – | 26.9 µM (inactive) | 47 µM (inactive) | 47.2 µM (inactive) | 37.2 µM (inactive) | 45.4 µM (inactive) | 14.6 µM (inactive) | 13.6 µM (inactive) | 26.4 µM (inactive) | 16.6 µM (inactive) | 26.7 µM (inactive) | 54.2 µM (inactive) | 12.5 µM (inactive) | 11.5 µM (inactive) | 34.9 µM (inactive)
O=C1c2ccsc2C(=O)c2sc(CO)cc21 | 0.11 µM (active) | 0.817 µM (active) | – | 0.0421 | 5.93 µM (inactive) | < 0.0132 µM (active) | 0.0507 µM (active) | 0.0681 µM (active) | 1.11 µM (active) | 1.65 µM (inactive) | 0.628 µM (active) | < 0.0118 µM (active) | 0.243 µM (active) | < 0.0176 µM (active) | 1.43 µM (inactive) | 3.52 µM (inactive) | 0.333 µM (active) | 0.113 µM (active) | 0.331 µM (active) | 0.0984 µM (active)
CC(C)(NC(=O)OCc1ccccc1)C(=O)NC(Cc1ccccc1)C(=O)O (stereo not drawn) (Cbz-[Aib]-[ξF]-OH) | > 100 µM (inactive) | > 100 µM (inactive) | > 100 µM (inactive) | > 100 | – | > 100 µM (inactive) | > 100 µM (inactive) | – | – | – | > 100 µM (inactive) | > 100 µM (inactive) | > 100 µM (inactive) | > 100 µM (inactive) | > 100 µM (inactive) | – | > 100 µM (inactive) | > 100 µM (inactive) | > 100 µM (inactive) | –
